Source: PubChem BioAssay AID328 (DTP/NCI, 2004)
Values joined by “and” are separate entries in the source; they are usually repeats but may differ in a detail not shown here. Identical values can stand only once. Inconclusive results and toxic doses are left out. The calls were made as follows: active = survival T/C of 150% or more; inactive = T/C below 125% in these data.

Test system: BDF1 mice, P388 leukemia ip, median survival T/C
Test: NCI In Vivo Anticancer Drug Screen. Data for tumor model P388 Leukemia (intraperitoneal) in B6D2F1 (BDF1) mice
Conditions: endpoint: median survival time, higher = longer survival
In short: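 Antitumour effect was judged in vivo: survival in drug-treated mice, normalised to that of vehicle-dosed controls, gives the reported T/C.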

[1] = dose: 100.0 mg/kg/injection, schedule: Q04DX003 (ip), vehicle: saline with Tween-80
[2] = dose: 200.0 mg/kg/injection, schedule: Q04DX003 (ip), vehicle: saline with Tween-80
[3] = dose: 400.0 mg/kg/injection, schedule: Q04DX003 (ip), vehicle: saline with Tween-80
[4] = dose: 100.0 mg/kg/injection, schedule: Q01DX009 (ip), vehicle: saline with Tween-80
[5] = dose: 200.0 mg/kg/injection, schedule: Q01DX009 (ip), vehicle: saline with Tween-80
[6] = dose: 75.0 mg/kg/injection, schedule: Q01DX009 (ip), vehicle: saline
[7] = dose: 50.0 mg/kg/injection, schedule: Q01DX009 (ip), vehicle: saline with Tween-80
[8] = dose: 25.0 mg/kg/injection, schedule: Q01DX009 (ip), vehicle: saline with Tween-80
[9] = dose: 50.0 mg/kg/injection, schedule: Q01DX009 (ip), vehicle: saline

Measured: T/C

CC(=O)c1ccccc1NC=O
inactive: [1] 100 % of control | [2] 104 % of control | [3] 108 % of control

CC#CCOCC(CCl)OC(=O)Nc1ccccc1 (configuration not stated)
inactive: [4] 100 % of control | [1] 120 % of control | [5] 112 % of control | [2] 110 % of control | dose: 400.0 mg/kg/injection, schedule: Q01DX009 (ip), vehicle: saline with Tween-80 108 % of control | [3] 100 % of control

Nc1ccccc1SC1CC(=O)N(c2ccccc2)C1=O (configuration not stated)
inactive: dose: 100.0 mg/kg/injection, schedule: Q01DX001 (ip), vehicle: Klucel (hydroxypropylcellulose) (HPC) 100 % of control | dose: 100.0 mg/kg/injection, schedule: Q01DX009 (ip), vehicle: Klucel (hydroxypropylcellulose) (HPC) 116 % of control | dose: 100.0 mg/kg/injection, schedule: Q04DX003 (ip), vehicle: Klucel (hydroxypropylcellulose) (HPC) 100 % of control | dose: 200.0 mg/kg/injection, schedule: Q01DX001 (ip), vehicle: Klucel (hydroxypropylcellulose) (HPC) 95 % of control | dose: 200.0 mg/kg/injection, schedule: Q01DX009 (ip), vehicle: Klucel (hydroxypropylcellulose) (HPC) 122 % of control | dose: 200.0 mg/kg/injection, schedule: Q04DX003 (ip), vehicle: Klucel (hydroxypropylcellulose) (HPC) 95 % of control | dose: 400.0 mg/kg/injection, schedule: Q01DX001 (ip), vehicle: Klucel (hydroxypropylcellulose) (HPC) 95 % of control | dose: 400.0 mg/kg/injection, schedule: Q01DX009 (ip), vehicle: Klucel (hydroxypropylcellulose) (HPC) 105 % of control | dose: 400.0 mg/kg/injection, schedule: Q04DX003 (ip), vehicle: Klucel (hydroxypropylcellulose) (HPC) 95 % of control

N/C(CCNO)=N\O
inactive: [6] 96 % of control | dose: 150.0 mg/kg/injection, schedule: Q01DX009 (ip), vehicle: saline 86 % of control | dose: 300.0 mg/kg/injection, schedule: Q01DX009 (ip), vehicle: saline 96 % of control

CCCS(=O)(=O)N(CC(=O)O)Cc1ccccc1
inactive: dose: 25.0 mg/kg/injection, schedule: Q04DX003 (ip), vehicle: other 106 % of control | dose: 50.0 mg/kg/injection, schedule: Q04DX003 (ip), vehicle: other 104 % of control | dose: 100.0 mg/kg/injection, schedule: Q04DX003 (ip), vehicle: other 100 % of control | dose: 200.0 mg/kg/injection, schedule: Q04DX003 (ip), vehicle: other 106 % of control | dose: 400.0 mg/kg/injection, schedule: Q04DX003 (ip), vehicle: other 106 % of control

O=C1CCCCCCCCCCC1Cc1cc(O)c(CC2CCCCCCCCCCC2=O)cc1O (configuration not stated)
inactive: [7] 96 % of control | [4] 94 % of control | [5] 100 % of control

CC(C)(C)C(CO)CO
inactive: [7] 93 % of control | [4] 100 % of control | [5] 100 % of control

CCOC(=O)Nc1ccc(/C=C\c2ccnc3ccccc23)cc1
inactive: dose: 12.5 mg/kg/injection, schedule: Q01DX009 (ip), vehicle: saline with Tween-80 106 % of control | [8] 115 % of control | [7] 92 % of control and 94 % of control

O=C(CC(O)(C(F)(F)F)C(F)(F)F)c1ccco1
inactive: dose: 17.0 mg/kg/injection, schedule: Q01DX009 (ip), vehicle: saline 100 % of control | [8] 123 % of control | dose: 33.0 mg/kg/injection, schedule: Q01DX009 (ip), vehicle: saline 100 % of control | [9] 100 % of control | dose: 50.0 mg/kg/injection, schedule: Q04DX003 (ip), vehicle: saline with Tween-80 120 % of control | [6] 100 % of control | [4] 123 % of control | [1] 120 % of control

O=C1CN(c2ccccc2)CC(=O)N2C(c3ccccc3)CCCN12 (configuration not stated)
inactive: dose: 50.0 mg/kg/injection, schedule: Q01DX005 (ip), vehicle: saline with Tween-80 113 % of control | dose: 100.0 mg/kg/injection, schedule: Q01DX005 (ip), vehicle: saline with Tween-80 97 % of control | dose: 200.0 mg/kg/injection, schedule: Q01DX005 (ip), vehicle: saline with Tween-80 97 % of control

CC1(c2ccccc2)O[C@@H]2C[C@H]3[C@@H]4CCC5=CC(=O)C=C[C@]5(C)[C@@]4(F)[C@@H](O)C[C@]3(C)[C@]2(C(=O)CO)O1 (some centres not stated)
inactive: [9] 100 % of control | dose: 100.0 mg/kg/injection, schedule: Q01DX009 (ip), vehicle: saline 100 % of control | dose: 132.0 mg/kg/injection, schedule: Q04DX003 (ip), vehicle: saline 90 % of control and 95 % of control (2×) | dose: 200.0 mg/kg/injection, schedule: Q04DX003 (ip), vehicle: saline 86 % of control and 95 % of control and 100 % of control | dose: 300.0 mg/kg/injection, schedule: Q04DX003 (ip), vehicle: saline 105 % of control | dose: 400.0 mg/kg/injection, schedule: Q04DX003 (ip), vehicle: alcohol 105 % of control
